Laboratory results taken from patent US8293212B2, “Inhibitor screening method and atopic dermatitis like symptom inducing method which utilizes induction of production of interleukin 18 by keratinocyte and utilization of same” (Japan Science & Technology Agency, priority 2003, dated 2012).
Where a SMILES comes first, the peptide text is derived from it. The star is where a group is joined. Cbz = O=C(OCc1ccccc1)*; CH2F = FC*

What was measured:
Kupffer cells [1] = conditions: secretion caused by LPS or membrane-bound Fas ligand stimulation; stated as background; cited from earlier work
[2] = system: KC of wild-type mice stimulated with SpA; test: Effect of caspase inhibitors on IL-18 secretion from SpA-stimulated KC; type: cell-based, mouse; conditions: 20 μM inhibitor, 500 μg/ml SpA, 24 hours (FIG. 7C)
Experimental: (§1) KC (5×10^5/ml) or PAM212 cells (2×10^5/ml) were incubated with a variety of doses of SpA and 1 μg/ml LPS or mFasL (1×10^6/ml) for 24 hours. In some examples, KC of wild-type mice were incubated with 100 μg/ml SpA in the presence of 20 μM of ZVAD or YVAD for 24 hours. IL-18 concentration and its activity in each supernatant were determined by ELISA and bioassay respectively. In some examples, KC were incubated with 500 μg/ml SpA for 4 hours, and total RNA was extracted, followed by RT-PCR (see Tsutsui, H., Matsui, K., Kawada, N., Hyodo, Y., Hayashi, N., Okamura, H., Higashino, K. and Nakanishi, K. 1997. IL-18 accounts for both TNF-α and Fas ligand-mediated hepatotoxic pathways in endotoxin-induced liver injury in mice. J. Immunol. 159:3961). As to primers for IL-18, IL-12p35, IL-12p40, or β-actin, and PCR conditions for individual cytokines, see the Tsutsui et al.
To be specific, KC were prepared from wild-type mice, caspase-1-deficient mice, TLR2-deficient mice, or MyD88-deficient mice. The KC of the wild-type mice were incubated with 500 μg/ml SpA in the presence of 20μ MZVAD, 20 μM YVAD, or the same volume of DMSO(Veh) for 24 hours. On the other hand, KC from each of the mutants were incubated with 500 μg/ml SpA for 24 hours. IL-18 in each supernatant was measured by ELISA. The result is illustrated in FIG. 7C. […]

Kupffer cells [3] = test: Cytokine expression and secretion of Kupffer cells after stimulation; type: cell-based, mouse; conditions: in response to SpA, data not shown
Experimental: Kupffer cells were prepared according to Non-Patent Document 6. Kupffer cells (1×10^6/ml) were incubated with 1 μg/ml LPS (lypopolysaccharide) for 4 hours, and their IL-18, IL-12p35, IL-12p40 and β-actin expressions were determined as mRNA levels by RT-PCR.
Next, it was examined whether SpA-stimulated KC secretes IL-12 as well as IL-18. In order to detect a small amount of IL-12, total RNA were obtained from KC that had been incubated with SpA for 4 hours, and RT-PCR was performed using the RNA. To be specific, KC and Kupffer cells of wild-type B6 mice were separately incubated in the presence/absence of 500 μg/ml SpA, and in the presence/absence of 1 μg/ml LPS for 4 hours. Expression level of mRNA of IL-18, IL-12p40, IL-12p35, and β-actin out of all extracted RNA were measured by RT-PCR. The result of the measurement is illustrated in FIG. 7D.

KC of wild-type B6 mice = test: IL-12 expression (RT-PCR) and IL-12 secretion (ELISA) in SpA-stimulated KC; type: cell-based, mouse
Experimental: as §1
Next, it was examined whether SpA-stimulated KC secretes IL-12 as well as IL-18. In order to detect a small amount of IL-12, total RNA were obtained from KC that had been incubated with SpA for 4 hours, and RT-PCR was performed using the RNA. […] Expression level of mRNA of IL-18, IL-12p40, IL-12p35, and β-actin out of all extracted RNA were measured by RT-PCR. […]

NC/Nga mice = test: Induction of AD-like skin lesion by application on shaven backs of NC/Nga mice; type: in vivo, mouse; conditions: 4% of SDS, SpA 200 μg/day, alone or as mixture
[4] = system: KC from wild-type B6 mice; test: IL-18 secretion from newly isolated KC after stimulation, ELISA of supernatant; type: cell-based, mouse
Experimental: (§2) Concentration of IL-18 was determined by an ELISA kit manufactured by MBL. IL-4, IFN-γ, and IL-1β were determined by an ELISA kit manufactured by Genzyme. An ELISA kit for IL-5 was purchased from Endogen. IgE serum level was determined by an ELISA kit manufactured by pharMingen. IFN-γ induction ability of IL-18 was determined by bioassay using clones of IL-18-responsive mouse NK cells (see Non-Patent Document 6 and others)
In order to delete DC, KC were incubated with CD11c microbeads (manufactured by Miltenyi Biotec), and then CD 11c^+ cells were depleted using an AutoMACS™ separator.
as §1, with “al. […]” for “al.”
To be specific, KC or CD11c^+ cell-depleted KC prepared from skin of wild-type B6 mice were analyzed for their expression of CD11c and MHC class II (1-A^b) by flow cytometry. These cells were incubated with or without SpA for 24 hours, and concentration of IL-18 in the resulting supernatant was measured by ELISA. […]
Further, because Kupffer cells secrete IL-18 in response to stimulation with LPS or membrane-bound Fas ligand, it was examined whether these stimuli induce IL-18 secretion from KC. […] IL-18 contained in each resulting supernatant was measured by ELISA.

normal B6 mice = test: Application of SpA on ear skin of normal B6 mice, serum IL-18/IgE and Th1/Th2 differentiation; type: in vivo, mouse
Experimental: Splenic CD4^+ T cells were isolated from variously treated mice using an AutoMACS™ separator (manufactured by Miltenyi Biotec). The newly isolated spleen cells were incubated with anti-CD4 beads (manufactured by Miltenyi Biotec). The purity of the CD4^+ T cells was more than 98%. The cells (1×10^6/ml) were incubated with immobilized anti-CD3ε (manufactured by PharMingen) for 48 hours. Concentrations of IFN-γ and IL-4 in each supernatant were determined by ELISA.
as §2
Solutions made by dissolving various doses of SpA in 5 μl vehicle (50% glycerol in PBS) were prepared, and the SpA solutions were applied on ear skin of wild-type mice for 14 days. For the control study, 5 μl vehicle without SpA was used. One mouse was caged to avoid effects from other mice.
To be specific, various amounts of SpA or only vehicles were applied on ear skin of normal B6 mice once a day for two weeks. After that, on day 14, serum and spleens were sampled so as to measure concentration of IL-18 or IgE. Further, splenic CD4^+ T cells from mice on which vehicle or SpA(100 μg/day) was applied were incubated with plate-bound anti-CD3 for 48 hours, and concentrations of IFN-γ and IL-4 in each supernatant were measured by ELISA. The results of the measurements are illustrated in FIGS. 6A through 6C.

PAM212 cells = test: IL-18 secretion and IFN-γ-inducing bioactivity of IL-18 from PAM212 cells incubated with SpA; type: cell-based, mouse; conditions: PAM212 cells incubated with SpA 24 hours (FIG. 7A)
Experimental: as §2
To be specific, LNK5E6 cells, having higher responsiveness to stimulation with IL-18 in terms of IFN-γ production than LNK5E3 cells (see Non-Patent Document 6), were incubated with a variety of samples and 100 pg/ml IL-12, in the presence or absence of anti-IL-18 antibody (50 μg/ml), for 48 hours. […]
KC (5×10^5/ml) or PAM212 cells (2×10^5/ml) were incubated with a variety of doses of SpA and 1 μg/ml LPS or mFasL (1×10^6/ml) for 24 hours. […] IL-18 concentration and its activity in each supernatant were determined by ELISA and bioassay respectively. […]
To be specific, PAM212 cells (culture strain of KC of mice) were incubated with or without SpA for 24 hours, and the IL-18 concentration and IFN-γ-inducing bioactivity of IL-18 in each supernatant were determined by ELISA and bioassay respectively. […] ND stands for “not detected”.

Compound	inhibition of IL-18 secretion from Kupffer cells (Kupffer cells [1])	inhibition of secretion of IL-18 from SpA-stimulated KC [2]	secretion of IL-12 or IL-18 from Kupffer cells (Kupffer cells [3])	IL-12p35 and IL-12p40 mRNA expression (RT-PCR) (KC of wild-type B6 mice; 500 μg/ml SpA, 4 hours (FIG. 7D))	IL-12p40 or IL-12p70 in supernatant (ELISA) (KC of wild-type B6 mice; 24-hour incubation, data not shown)	development of AD / skin lesion like AD (NC/Nga mice)	IL-18 produced by KC ([4]; 500 μg/ml SpA without adding DMSO, 24 hours (FIG. 7C))	IL-18 in supernatant ([4]; KC 5×10^5/ml, 24 hours, 500 μg/ml SpA, 1 μg/ml LPS or 1×10^6/ml mFasL, ND = not detected)	IL-18 release from newly isolated KC in response to SpA ([4]; various amounts of SpA, 24 hours (FIG. 7B))	Th1/Th2 differentiation of splenic CD4+ T cells (IFN-γ and IL-4) (normal B6 mice; SpA 100 μg/day, anti-CD3 48 hours (FIG. 6C))	IL-12p40 and IL-12p70 in sera (ELISA) (normal B6 mice; data not shown)	serum levels of IL-18 (normal B6 mice; ear skin, once a day for two weeks, day 14 (FIG. 6A))	serum IgE levels (normal B6 mice; ear skin, once a day for two weeks, day 14 (FIG. 6B))	secretion of activated IL-18 (ELISA and IFN-γ-inducing bioassay) (PAM212 cells)
CC(=O)N[C@@H](Cc1ccc(O)cc1)C(=O)N[C@H](C(=O)N[C@@H](C)C(=O)N[C@@H](CC(=O)O)C(=O)CCl)C(C)C [YVAD, Ac-YCAD-CMK]	strongly inhibit	did not inhibit	–	–	–	–	–	–	–	–	–	–	–	–
COC(=O)C[C@H](NC(=O)[C@H](C)NC(=O)[C@@H](NC(=O)OCc1ccccc1)C(C)C)C(=O)CF [ZVAD, Z-VAD-FMK] (Cbz-Val-Ala-Asp(OMe)-CH2F)	strongly inhibit	did not inhibit	–	–	–	–	–	–	–	–	–	–	–	–
SpA: protein A purified from Staphylococcus aureus Cowan 1, purchased from Calbiochem	–	–	did not secrete IL-12 or IL-18	neither IL-12p35 nor IL-12p40 were detected	not detected	do not develop AD	28.4 ± 3.5 pg/mL	31.5 ± 3.2 pg/mL	released IL-18 in a dose-dependent manner	did not show preferential differentiation of Th2 cells	not detected	increased	increased in a dose-dependent manner	secreted activated IL-18
